Patent US9980486B2, “Herbicidal quinolines” (Syngenta Participations AG, priority 2014, dated 2018)

Key:
Format in all cases: in vivo
[1] = system: Lolium perenne (LOLPE); test: Experiment B1 glasshouse herbicide test, pre- and post-emergence, percentage damage; conditions: evaluated after 13 days
Method: (§1) Seeds of a variety of test species are sown in standard soil in pots (Lolium perenne (LOLPE), Solanum nigrum (SOLNI), Amaranthus retoflexus (AMARE), Setaria faberi (SETFA), Echinochloa crus-galli (ECHCG), Ipomoea hederacea (IPOHE)). After cultivation for one day (pre-emergence) or after 8 days cultivation (post-emergence) under controlled conditions in a glasshouse (at 24/16° C., day/night; 14 hours light; 65% humidity), the plants are sprayed with an aqueous spray solution derived from the formulation of the technical active ingredient in acetone/water (50:50) solution containing 0.5% Tween 20 (polyoxyethelyene sorbitan monolaurate, CAS RN 9005-64-5). […] The test plants are then grown in a glasshouse under controlled conditions in a glasshouse (at 24/16° C., day/night; 14 hours light; 65% humidity) and watered twice daily. After 13 days for pre and post-emergence, the test is evaluated for the percentage damage caused to the plant. The biological activities are shown in the following table on a five point scale (5=80-100%; 4=60-79%; 3=40-59%; 2=20-39%; 1=0-19%).

[2] = system: Setaria faberi (SETFA); test: as above; conditions: evaluated after 13 days
Method: as §1

[3] = system: Solanum nigrum (SOLNI); test: as above; conditions: evaluated after 13 days
Method: as §1

[4] = system: Amaranthus retoflexus (AMARE); test: as above; conditions: evaluated after 13 days
Method: as §1

[5] = system: Echinochloa crus-galli (ECHCG); test: as above; conditions: evaluated after 13 days
Method: as §1

[6] = system: Ipomoea hederacea (IPOHE); test: as above; conditions: evaluated after 13 days
Method: as §1

[7] = system: Panicum miliaceum (PANMI); test: Experiment B2 comparative glasshouse herbicide test, pre- and post-emergence, phytotoxicity
Method: (§2) A comparative test is performed to compare the efficacy of quinoline compounds of the present invention with quinoline compounds taught in WO2014/037342 and napthyridines taught in WO2013/092834. Seeds of a variety of test species were sown in standard soil in pots. After cultivation for one day (pre-emergence) or after 10 days cultivation (post-emergence) under controlled conditions in a glasshouse (at 24/16° C., day/night; 14 hours light; 65% humidity), the plants were sprayed with an aqueous spray solution derived from the formulation of the technical active ingredient in 0.6 ml acetone and 45 ml formulation solution containing 10.6% Emulsogen EL (Registry number 61791-12-6), 42.2% N-methyl pyrrolidone, 42.2% dipropylene glycol monomethyl ether (CAS RN 34590-94-8) and 0.2% X-77 (CAS RN 11097-66-8). The test plants were then grown in a glasshouse under controlled conditions in a glasshouse (at 24/16° C., day/night; 14 hours light; 65% humidity) and watered twice daily. After 14 days for post-emergence and 21 days for pre-emergence and phytotoxicity evaluated using a five point scale (5=80-100%; 4=60-79%; 3=40-59%; 2=20-39%; 1=0-19%). Test Plants:—Eriochloa villosa (ERBVI), Panicum miliaceum (PANMI).

[8] = system: Eriochloa villosa (ERBVI); test: as above
Method: as §2

[9] = POST Application (post-emergence, after 8 days cultivation), 1000 g/h
[10] = PRE Application (pre-emergence, after cultivation for one day), 1000 g/h
[11] = POST Application (60 g/ha), after 10 days cultivation, evaluated after 14 days
[12] = PRE Application (250 g/ha), after cultivation for one day, evaluated after 21 days
[13] = POST Application (post-emergence), applied at 250 g/ha
[14] = PRE Application (pre-emergence), applied at 250 g/ha

SMILES | percentage damage caused to the plant, five point scale, LOLPE [1, 9] | percentage damage caused to the plant, five point scale, LOLPE [1, 10] | percentage damage caused to the plant, five point scale, SETFA [2, 9] | percentage damage caused to the plant, five point scale, SETFA [2, 10] | percentage damage caused to the plant, five point scale, SOLNI [3, 9] | percentage damage caused to the plant, five point scale, SOLNI [3, 10] | percentage damage caused to the plant, five point scale, AMARE [4, 9] | percentage damage caused to the plant, five point scale, AMARE [4, 10] | percentage damage caused to the plant, five point scale, ECHCG [5, 9] | percentage damage caused to the plant, five point scale, ECHCG [5, 10] | percentage damage caused to the plant, five point scale, IPOHE [6, 9] | percentage damage caused to the plant, five point scale, IPOHE [6, 10] | other results
Cn1nnnc1NC(=O)c1cc2cccnc2c(-c2ccccc2)c1C(F)(F)F [Compound 1.001, N-(1-methyltetrazol-5-yl)-8-phenyl-7-(trifluoromethyl)-quinoline-6-carboxamide] | 5 (5=80-100%) | 5 (5=80-100%) | 5 (5=80-100%) | 5 (5=80-100%) | 5 (5=80-100%) | 5 (5=80-100%) | 5 (5=80-100%) | 5 (5=80-100%) | 5 (5=80-100%) | 5 (5=80-100%) | 5 (5=80-100%) | 5 (5=80-100%) | phytotoxicity, five point scale, PANMI [7, 11]: 5 (5=80-100%); phytotoxicity, five point scale, PANMI [7, 12]: 5 (5=80-100%); phytotoxicity, five point scale, ERBVI [8, 11]: 5 (5=80-100%); phytotoxicity, five point scale, ERBVI [8, 12]: 3 (3=40-59%)
COc1ccc(-c2c(C)c(C(=O)Nc3nnnn3C)cc3ccc(C)nc23)cc1 [Compound 1.037] | 5 (5=80-100%) | 3 (3=40-59%) | 5 (5=80-100%) | 5 (5=80-100%) | 5 (5=80-100%) | 5 (5=80-100%) | 5 (5=80-100%) | 5 (5=80-100%) | 5 (5=80-100%) | 5 (5=80-100%) | 5 (5=80-100%) | 4 (4=60-79%) | –
COc1c(C(=O)Nc2nnnn2C)cc2cccnc2c1-c1ccccc1 [Compound 1.009, 7-methoxy-N-(1-methyltetrazol-5-yl)-8-phenyl-quinoline-6-carboxamide] | 4 (4=60-79%) | 5 (5=80-100%) | 5 (5=80-100%) | 5 (5=80-100%) | 5 (5=80-100%) | 5 (5=80-100%) | 5 (5=80-100%) | 5 (5=80-100%) | 5 (5=80-100%) | 5 (5=80-100%) | 5 (5=80-100%) | 5 (5=80-100%) | –
Cn1nnnc1NC(=O)c1cc2cccnc2c(-c2ccccc2)c1S(C)(=O)=O [Compound 1.010, 7-METHYLSULFONYL-N-(1-METHYLTETRAZOL-5-YL)-8-PHENYL-QUINOLINE-6-CARBOXAMIDE] | – | – | – | – | – | – | – | – | – | – | – | – | percentage damage caused to the plant, five point scale, LOLPE [1, 13]: 4 (4=60-79%); percentage damage caused to the plant, five point scale, LOLPE [1, 14]: 2 (2=20-39%); percentage damage caused to the plant, five point scale, SETFA [2, 13]: 5 (5=80-100%); percentage damage caused to the plant, five point scale, SETFA [2, 14]: 2 (2=20-39%); percentage damage caused to the plant, five point scale, SOLNI [3, 13]: 5 (5=80-100%); percentage damage caused to the plant, five point scale, SOLNI [3, 14]: 5 (5=80-100%); percentage damage caused to the plant, five point scale, AMARE [4, 13]: 5 (5=80-100%); percentage damage caused to the plant, five point scale, AMARE [4, 14]: 5 (5=80-100%); percentage damage caused to the plant, five point scale, ECHCG [5, 13]: 5 (5=80-100%); percentage damage caused to the plant, five point scale, ECHCG [5, 14]: 5 (5=80-100%); percentage damage caused to the plant, five point scale, IPOHE [6, 13]: 5 (5=80-100%); percentage damage caused to the plant, five point scale, IPOHE [6, 14]: 4 (4=60-79%)
